This passage reports RP-LC retention time results from the METLIN SMRT retention time set (Domingo-Almenara et al. 2019).

Structures are written as SMILES.

This series can be described thus: gradient 5% acetonitrile 3 min, to 50% in 2 min, to 85% in 15 min, held 3 min, 100 µL/min. The conditions noted are these: column: Zorbax Extend-C18 2.1 x 50 mm; eluents: water / acetonitrile, 0.1% formic acid. In outline: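 Pure standards were analyzed in mixtures of ~100 molecules using HPLC coupled to a quadrupole time-of-flight mass spectrometer, in both positive and negative ionization mode. Separation used a Zorbax Extend-C18 column (2.1 × 50 mm, 1.8 μm) at 100 μL/min, with water and acetonitrile each containing 0.1% formic acid. Dead and dwell volumes were 40 μL and 900 μL, and data were collected over 3 months. Retention time was read from computationally picked adduct peaks, each inspected manually.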
Molecule `CC(C)(CO)NCc1ccc(-c2ccc(F)c(Cl)c2)o1` came in with an RP-LC retention time of 644 s.
To `CC(C)CN1CCN(C(=O)c2nnc(-c3ccc(S(=O)(=O)N(C)C)cc3)o2)CC1` belongs 608 s.
To `CCCC1c2nccn2CCCN1C(=O)CCc1c(C)noc1C` (stereo unspecified) belongs 595 s; to `COc1cccc(-c2noc(CN3C(=O)COc4ccc(C(C)(C)C)cc43)n2)c1`, 1250 s; to `C=CCN(CC=C)c1nc(-c2ccc([N+](=O)[O-])cc2)nc2ccccc12`, 1060 s.
The molecule `O=C(Nc1ccc(OCC(=O)N2CCN(c3ncccn3)CC2)nc1)C1CC1` yielded an RP-LC retention time of 624 s.
The value for `Cc1ccc(CNC(=O)CN2CCN(Cc3cccc(Cl)c3)C2=O)o1` was 810 s; that for `NC(=O)Cn1c(Cc2ccccc2)nc2ccccc21` was 522 s; that for `CCC(=O)Nc1cc2c(cc1S(=O)(=O)c1ccc(C)cc1)n(C)c(=O)n2C` was 767 s.
To `CN(C)[C@@H](CCOc1cccc2ccccc12)c1ccccc1` belongs 807 s; to `COCCNC(=O)c1ccc(-c2nc(CSc3ccccc3)c(C)o2)cc1`, 882 s; to `CCC(=O)Nc1ccc(-n2cnc(C(=O)NCC(C)C)c2)nc1`, 667 s.
In the case of `CN(C)S(=O)(=O)c1ccc(CNC(=O)c2cccc(-c3nnc(-c4ccccc4)o3)c2)s1`, the RP-LC retention time was 904 s.
The molecule `O=C(Nc1ccc2c(c1)OCCO2)c1cc(-c2ccccn2)n[nH]1` showed an RP-LC retention time of 648 s.
Regarding `c1cc(-c2noc(C3CCCC3)n2)cc(N2CCOCC2)n1`, the RP-LC retention time is 872 s.
The value for `CC1(C)CC(NC(=O)COc2ccc(Cl)cc2)CC(C)(C)N1` was 623 s.
To `Cn1nc(C(=O)N2CCCC2)c2c1CCN(C(=O)CCC(=O)N1CCN(c3ccccc3)CC1)C2` belongs 701 s; to `N#Cc1ccccc1CN1CCC(N2CC(OCC3CC3)C23CCCCC3)CC1` (stereo unspecified), 607 s; to `Cc1[nH]c(C(=O)N2CCC(CC(=O)NCCN3CCCCC3)CC2)c(C)c1C`, 604 s.
The molecule `O=c1[nH]c2ccc(O)cc2o1` showed an RP-LC retention time of 563 s.
To `COc1ccccc1N1CCN(S(=O)(=O)c2ccc(F)cc2C)CC1` belongs 1010 s.
The molecule `O=C(c1ccc2c(c1)OCO2)N1CCCC2(C1)NC(=O)N(Cc1ccccc1)C2=O` (stereo unspecified) registered an RP-LC retention time of 762 s.
Take `COc1cc(OC)cc(-c2cc3cnc(N)nc3nc2NC(=O)NC(C)(C)C)c1`: the RP-LC retention time worked out at 814 s.
As for `Cc1cccc(NC(=O)N2CCCC2c2nc(-c3ccccc3)no2)c1` (stereo unspecified), the RP-LC retention time is 984 s.
To `O=C(Cc1csc2nc(-c3cccc(Br)c3)cn12)NCc1ccc2c(c1)OCO2` belongs 869 s; to `Cc1nnc(NC(=O)CCc2c(C)[nH]c(=O)[nH]c2=O)s1`, 547 s; to `CCCCOC(=O)c1ccc(NC(=O)c2cnc3scc(C)n3c2=O)cc1`, 1050 s.
The value for `O=C(Nc1cc(Cl)ccc1F)c1cnc(-c2ccccc2)nc1-c1ccncc1` was 976 s; that for `Cc1cccc(CNC(=O)C2CCN(c3nnc4c(Cl)cccn34)CC2)c1C` was 757 s.
The value for `CC(=O)N1CCc2cc(N3CC(C(=O)NCc4ccccc4F)CC3=O)ccc21` (stereo unspecified) was 763 s.
In the case of `CCN1CCN(CCNC(=O)C2CCCN(c3nc4cccnc4s3)C2)CC1` (stereo unspecified), the RP-LC retention time was 562 s.
In turn, `CCCN(CCC)S(=O)(=O)c1ccc(C)cc1` came in with an RP-LC retention time of 1200 s.
The value for `CCn1c(N2CCCC(C(=O)NCCCN3CCCc4ccccc43)C2)cc(=O)n(C)c1=O` (stereo unspecified) was 847 s.
Turning to `CN(C)C(=O)COc1cc(O)c2c(=O)cc(-c3ccccc3)oc2c1`, the RP-LC retention time was found to be 832 s.
To `CCc1nc(-c2csc(S(=O)(=O)N3CCCC(C(=O)NC4CCCC4)C3)c2)no1` (stereo unspecified) belongs 937 s; to `COCc1cc(=O)n(CC(=O)Nc2ccccc2OC)c(N2CCOCC2)n1`, 846 s.
For the molecule `CCOC(=O)CN1CC2=C(C1=O)C(c1ccc(OC)cc1)NC(=O)N2` (stereo unspecified), the RP-LC retention time was 618 s.
Molecule `COc1ccc(-c2nnc(-c3ccc(C)c(S(=O)(=O)NC4CCCC4)c3)o2)cc1OC` gave an RP-LC retention time of 1010 s.
Take `CCc1cccc(NC(=O)C2CCc3nc(N4CCOCC4)ncc3C2)c1` (stereo unspecified): the RP-LC retention time was found to be 839 s.
`Cn1cc(-c2ccncc2)cc1C(=O)N1CCN(c2ccccc2F)CC1` yielded an RP-LC retention time of 650 s.
In the case of `CCC(=O)N1CCc2cc(C(=O)NCc3cccs3)ccc21`, the RP-LC retention time came out at 743 s.
To `O=C(CSc1cc(N2CCN(c3ccccc3F)CC2)ncn1)NC1CCCC1` belongs 963 s; to `CC(C)n1cnc(S(=O)(=O)N2CCCC(C(=O)Nc3cccc(Br)c3)C2)c1` (stereo unspecified), 898 s; to `Cc1sc(NC(=O)c2ccc3c(c2)OCO3)nc1-c1ccc2c(c1)N(C)C(=O)CO2`, 823 s.
To `COc1ccc(CN(C)Cc2cc(=O)n3ccccc3n2)cc1OC` belongs 573 s; to `COc1ccccc1-c1nc(-c2ccc3c(c2)ncn3CCN2CCOCC2)no1`, 625 s; to `O=C(c1ccc(N2C(=O)CCS2(=O)=O)cc1)N1CCN(c2ccccn2)CC1`, 548 s.
Regarding `CC1=C(N2CC2)C(=O)C(CO)=C(N2CC2)C1=O`, the RP-LC retention time worked out at 585 s.
The molecule `CCN1C(=O)COc2ccc(-c3noc(-c4cccc(F)c4)n3)cc21` had an RP-LC retention time of 1170 s.
Turning to `CCCCNC(=O)c1ccc2c(c1)NC(=O)C(CC(C)C)N2` (stereo unspecified), the RP-LC retention time was 754 s.
The value for `O=C(c1nc(Nc2ccc(F)cc2)c2ccccc2n1)N1CCOCC1` was 685 s; that for `Cc1ccc(C(=O)c2cnc3cc4c(cc3c2N2CCOCC2)OCO4)cc1C` was 714 s; that for `CCN1CCCC1CNC(=O)Cn1c2ccccc2c2cnn(C)c(=O)c21` (stereo unspecified) was 554 s.
The value for `O=C(Nc1nc(CC(=O)N2CCN(C(=O)C3CCCO3)CC2)cs1)c1ccsc1` (stereo unspecified) was 606 s.
Regarding `Cc1cccc(-c2ncccc2CNS(=O)(=O)c2cccs2)c1`, the RP-LC retention time was found to be 677 s.
Turning to `CCOc1ccc(NC(=O)N2CC(=O)N(CC(=O)N3CCC(C(N)=O)CC3)c3ccccc32)cc1`, the RP-LC retention time was 660 s.
The value for `O=C(O)c1cc(N2CCN(CC(=O)N3CCCCCC3)CC2)ccc1NC(=O)C1CC1` was 615 s; that for `CN(C)c1nccnc1OC1CCN(C(=O)c2ccn[nH]2)C1` (stereo unspecified) was 604 s; that for `Cc1nc(-c2csc(S(=O)(=O)N3CCCC(C(=O)NC4CCCCCC4)C3)c2)no1` (stereo unspecified) was 1000 s.
For `Cc1cc2[nH]c(C(=O)Nc3ccccc3Br)c(CN3CCOCC3)c2s1`, the RP-LC retention time is 708 s.
To `Cn1ncc2c(N3CCSCC3)nc(C(=O)N3CCN(c4ccccc4)CC3)nc21` belongs 830 s; to `COc1ccc(OC)c2[nH]c(C(=O)N3CCCC3)cc12`, 823 s.
`COc1ccc(-c2nc(C3CC(=O)N(c4ccc(Cl)cc4)C3)no2)cc1` (stereo unspecified) showed an RP-LC retention time of 1060 s.
The value for `CCN1CCN(C(=O)C2CCN(S(=O)(=O)c3c(C)nn(-c4ccccc4)c3C)CC2)CC1` was 621 s; that for `COc1ccc(/C=C/c2nc(-c3ccc4oc(C)nc4c3)no2)cc1` was 1150 s.
To `COc1cc(NC(=O)NCC(c2cccnc2)c2cn(C)c3ccccc23)cc(OC)c1OC` (stereo unspecified) belongs 661 s; to `O=C(Cn1cccc(-c2nc(-c3ccccc3)no2)c1=O)Nc1ccc2c(c1)OCO2`, 815 s; to `CC1CCCCN1CCCNC(=O)CCC(=O)N1CCc2c(c(C(=O)N3CCCCC3)nn2C)C1` (stereo unspecified), 578 s.
The value for `O=C(Nc1cnc2ccccc2c1)N(c1ccccc1)c1ccccc1` was 754 s.
In turn, `COCCCN1C(=O)CSc2c(c3ccccc3n2C)C1C(=O)NCc1ccccc1OC` (stereo unspecified) displayed an RP-LC retention time of 893 s.
To `CCCS(=O)(=O)N1CCC(Cc2nc(-c3cccnc3)n[nH]2)C1` (stereo unspecified) belongs 583 s; to `CSc1ccc(CNC(=O)c2cn3cc(Cl)ccc3n2)cc1`, 895 s.
To `COc1ccc(-n2c(CN3CCN(C(=O)Nc4cc(F)ccc4F)CC3)nc3cccnc32)cc1` belongs 689 s; to `COCC(=O)N1CCC2(CC1)NC(=O)N(CCc1ccccc1)C2=O`, 631 s.
The molecule `O=C(Cn1c(=O)oc2ccc(C(=O)N3CCCC3)cc21)NCCCc1ccccc1` returned an RP-LC retention time of 764 s.
As to `Cc1cccc(NS(=O)(=O)c2ccc(-c3nnc(C4CCC4)o3)o2)c1`, the RP-LC retention time was found to be 924 s.
To `CCC(CC)NC(=O)C1CC(=O)N(CCc2c[nH]c3ccc(Cl)cc23)C1` (stereo unspecified) belongs 796 s; to `CCOC(=O)c1[nH]c(C)c(CCC(=O)N2CCC(C(=O)NCc3cccnc3)CC2)c1C`, 597 s; to `Cc1nc(-n2cccc2)sc1C(=O)N1CCN(C(=O)c2ccco2)CC1`, 713 s.
To `Cc1ccc(NC(=O)Cn2cnc3nc(N4CCCC(C(=O)NC5CC5)C4)sc3c2=O)cc1F` (stereo unspecified) belongs 703 s.
The value for `Cc1ccccc1C(=O)Nc1cc(-c2cccs2)no1` was 947 s.
